Experimental data from patent publication US20160243059A1 (UNIST Academy-Industry Research Corporation, priority 2015, published 2016).
Entries after “also recorded” stand apart in the source; their conditions may differ.

Experiments:
[1] = tested on: Aβ40/Aβ42 aggregates; assay: Breakdown of preformed Aβ aggregation (gel electrophoresis/Western blot, TEM); type: biochemical; conditions: Aβ preincubated 24 hours at 37° C., then DMPD 50 μM
Description: (§1) The peptide stock solution was diluted to a final concentration of 25 μM in Chelex-treated buffered solution containing [4-(2-hydroxyethyl)-1-piperazine ethane sulfonic acid; […]; pH 6.6 for Cu(II) samples; pH 7.4 for metal-free and Zn(II) samples] (HEPES) and NaCl ([…]).
(§2) The samples from studies on the inhibition of formation of Aβ aggregation and the breakdown of Aβ aggregation were analyzed by gel electrophoresis with Western blotting using an anti-Aβ antibody (6E10).
(§3) Each sample (10 μL) was separated on a 10-20% Tris-tricine gel (Invitrogen, Grand island, NY, USA), and the protein samples obtained therefrom were transferred onto a nitrocellulose membrane which was blocked with bovine serum albumin (BSA, 3% w/v, Sigma-Aldrich, St. Louis, Mo., USA) in Tris-buffered saline containing 0.1% Tween-20 (TBS-T; 1.00 mM Tris base, pH 8.0, 1.50 mM NaCl) at room temperature for 2 hours.
(§4) Afterwards, the membranes were incubated with a primary antibody (6E10, Covance, Princeton, N.J., USA; 1:2000) in a solution of 2% w/v BSA (in TBS-T) overnight at 4° C. After washing with TBS-T (three times, each for 10 minutes), the horseradish peroxidase-conjugated goat antimouse secondary antibody (1:5000; Cayman Chemical Company, Ann Arbor, Mich., USA) in 2% w/v BSA (in TBS-T) was added for 1 hour at room temperature. […]

[2] = molecular target: T1, Aβ40/Aβ42 aggregates (Homo sapiens, UniProt P05067); assay: as above; type: biochemical; conditions: regardless of presence or absence of metals
T1 construct: Aβ40 and Aβ42 were purchased from AnaSpec (Fremont, Calif., USA); purchased AnaSpec
T1 sequence (P05067 672-713): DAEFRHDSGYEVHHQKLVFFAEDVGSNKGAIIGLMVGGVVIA
Description: as §1, §2, §3, §4

[3] = molecular target: T2, Aβ40 (Homo sapiens, UniProt P05067); assay: Mass spectrometry and IM-MS of Aβ40-ligand complexes; type: binding
T2 construct: Aβ40 and Aβ42 were purchased from AnaSpec (Fremont, Calif., USA); purchased AnaSpec
T2 sequence (P05067 672-711 limits assumed): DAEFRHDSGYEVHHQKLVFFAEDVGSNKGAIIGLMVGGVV
Description: The resulting solutions were allowed to react for 0, 2, 4, 8, and 24 hours at a temperature of 37° C. The samples were directly injected into the mass spectrometer at a flow rate of […]. ESI interface was operated in positive-ion mode; spray voltage was set at 4.5 kV with capillary temperature at 300° C. and capillary exit voltage at 101 V. Mass spectra were taken in the range of m/z 50 to 500.
All ion mobility-mass spectrometry (IM-MS) experiments were carried out on a Synapt G2 (Waters, Milford, Mass., USA). Samples were ionized using a nano-electrospray source operated in positive ion mode. MS instrumentation was operated at a backing pressure of 2.7 mbar and a sample cone voltage of 40 V. Data were analyzed using MassLynx 4.1 and DriftScope 2.0 (Waters, Milford, Mass., USA). Collision cross-section (CCS) measurements were calibrated externally using a database of known protein, and protein complex CCS values in helium. Lyophilized Aβ40 peptides (AnaSpec, Fremont, Calif., USA) were prepared to a stock concentration of 25 μM in 1 mM ammonium acetate (pH 7.0). […] After the reaction, all samples were lyophilized overnight prior to re-suspension of the samples in hexafluoro-2-propanol (HFIP, Sigma-Aldrich, St Louis, Mo., USA)([Aβ40]=50 μM) and sonicated under pulse settings for 5 minutes. The samples were diluted 50%, to a final Aβ40 concentration of 25 μM, using 1 mM ammonium acetate (0.5 mM final concentration) immediately prior to mass analysis.

[4] = tested on: 5×FAD mice; assay: Morris water maze test in 5×FAD mice; type: in vivo, mouse
Description: Three hours after the final Morris water maze test, to confirm the performance of long-term memory retention, the probe trials, where the escape platform was removed, was carried out, and the mice located its previous position in the water for 60 seconds.

[5] = Gross appearance and body weight of 5×FAD mice; type: in vivo, mouse; conditions: at conclusion of 30-day treatment, 1 mg/kg/day intraperitoneal
Description: (§5) 5×FAD mice were selected for this study since they develop early and severe phenotypes of AD and behavioral dysfunction.

[6] = molecular target: T3, Cu(II)-loaded Aβ42 fibrils (Homo sapiens, UniProt P05067); assay: Cu K-edge X-ray absorption spectroscopy; conditions: DMPD 2 equivalents, 24 hours, anaerobic
T3 construct: Aβ40 and Aβ42 were purchased from AnaSpec (Fremont, Calif., USA); purchased AnaSpec
T3 sequence (P05067 672-713 limits assumed): as the sequence (P05067 672-713) above
Description: Aβ42 was monomerized according to the methods previously described (Biochemistry 44, 5478-5487, 2005; J. Am. Chem. Soc. 126, 13534-13538, 2004), and fibrils of Aβ42 were grown according to protocols known in the art (Biochemistry, 47, 5006-5016, 2008). Following monomerizatino of fibrillization, all samples were treated under an anaerobic atmosphere (N2) in a COY anaerobic chamber (COY Laboratory, Grass Lake, Mich., USA).
Aβ42 was dissolved in a mixture of 10 mM of N-ethylmorpholine buffer (pH 7.4) and glycerol (used as a deicing agent) that were mixed at a ratio of 4:1, and then, an equivalent amount of CuCl2 was added thereto. Aβ42 monomers were maintained at 5° C., and all procedures performed rapidly to avoid aggregation. […]
Following the reaction with DMPD, the solutions were injected into Lucite sample holders with Kapton tape windows, and then, quickly frozen in liquid nitrogen. All data were recorded on beamline X-3b at the National Synchrotron Light Source (Brookhaven National Laboratories, Upton, N.Y., USA). […]
Data were collected as fluorescence spectra using a Canberra 31 element Ge solid-state detector with a 3 micron Ni filter placed between the sample and detector, and calibrated against a simultaneously collected spectrum of Cu-foil (first inflection point 8980.3 eV). […]

[7] = tested on: amyloid plaques; assay: Histopathological evaluation of amyloid deposition load in 5×FAD mice; type: in vivo, mouse; conditions: 1 mg/kg/day intraperitoneal, 30 days
Description: as §5

[8] = tested on: Aβ42; assay: Cerebral Aβ42 by ELISA in 5×FAD mice; type: in vivo, mouse; conditions: 1 mg/kg/day intraperitoneal, 30 days
Description: as §5
(§6) Cerebral Aβ peptides were quantified by the enzyme-linked immunosorbent assay (ELISA).

[9] = tested on: SK-N-BE(2)-M17 (M17) cell line; assay: Cell viability (MTT) of Aβ40- or metal-Aβ40-treated M17 cells; type: cell-based, human; conditions: Aβ:metal:ligand 10:10:20 μM, 24 hours, relative to the untreated cells
Description: The human neuroblastoma, i.e., SK-N-BE(2)-M17 (M17) cell line, was purchased from the American Type Culture Collection (ATCC, Manassas, Va., USA).
The cell line was maintained in media containing Minimum Essential Media (MEM; GIBCO, Life Technologies, Grand Island, N.Y., USA) and Ham's F12K Kaighn's Modification Media (F12K; GIBCO) at a ratio of 1:1, 10% (v/v) fetal bovine serum (FBS; Atlanta Biologicals, Flowery Branch, Ga., USA), 100 U/mL penicillin (GIBCO), and […] streptomycin (GIBCO). The cells were grown and maintained at a temperature of 37° C. in a humidified atmosphere with 5% CO2.
After completing the incubation at a temperature of 37° C. for 24 hours, 25 μL of [3-(4,5-dimethylthiazol-2-yl)-2,5-diphenyltetrazolium bromide; 5 mg/mL in phosphate buffered saline (PBS), pH7.4, GIBCO] (MTT) was added to each well, and then, the plates were incubated at a temperature of 37° C. for 4 hours.
Formazan produced by the cells was dissolved in a solution containing N,N-dimethylformamide (DMF, 50% v/v aq, pH 4.5) and sodium dodecyl sulfate (SDS, 20% w/v) overnight at room temperature. Subsequently, absorbance at 600 nm was measured on a microplate reader.

[10] = tested on: Aβ40; assay: Cerebral Aβ40 by ELISA in 5×FAD mice; type: in vivo, mouse; conditions: 1 mg/kg/day intraperitoneal, 30 days
Description: as §5, §6

[11] = molecular target: T2, Aβ40; assay: Isothermal titration calorimetry (ITC); type: binding
Description: The ligand solution (10 μL) was titrated into the Aβ40 solution (1.4 mL) at 25° C. over 1 second with 25 injections with a constant interval of […] a 250 μL syringe rotating at 310 rpm. In a control experiment, the identical titrant solution was injected into the same buffer used with Aβ40 to measure the heat of dilution.
A reasonable heat of binding value was calculated by subtracting the heat of dilution value from the overall heat change. Titration data were analyzed with the MicroCal Origin (v. 7.0). The values of Ka (association constant) and […] each ligand upon binding to Aβ40 was determined from a proper fitting model. The binding curves were best fit to a sequential binding model with three binding sites. The values of −TΔS and ΔG were calculated from the Gibb's free energy relationship [(ΔG=ΔH−TΔS; ΔG=−RT ln(Ka)].

[12] = tested on: Aβ40/Aβ42; assay: Inhibition of formation of Aβ aggregation (gel electrophoresis/Western blot, TEM); type: biochemical
Description: Aβ40 or Aβ42 was dissolved in ammonium hydroxide (NH4OH, 1% v/v aq), and then, aliquoted, lyophilized overnight, and stored at a temperature of −80° C. For experiments described herein, a stock solution of Aβ was prepared by dissolving lyophilized peptide in 1% NH4OH (10 μL) and diluted with deionized distilled water (ddH2O).
The concentration of Aβ peptides in the solution was determined by measuring the absorbance of the solution at 280 nm (E=1450 M^−1 cm^−1 for Aβ40; and ε=1490 M^−1 cm^−1 for Aβ42).
as §1, §2
as §3, with “hours. […]” for “hours.”

[13] = probe trial 60 seconds, three hours after final test, vs vehicle-treated 5×FAD mice
[14] = sequential binding model, three sites, 25° C., pH 7.4

CN(C)c1ccc(N)cc1 [DMPD, N,N-dimethyl-p-phenylenediamine]
transformation of preformed metal-free and metal-Aβ40/Aβ42 aggregates [1]: significant effects on the transformation; also recorded: modified the formed Aβ aggregates to relatively smaller and less structured Aβ aggregates | reactivity toward Aβ42 aggregates [2]: less reactivity toward Aβ42 aggregates | ion mobility arrival time of Aβ40 complex versus apo state ([3]; IM-MS, 4+ charge state): significantly decreased | spatial learning and memory capability ([4]; final five days of DMPD treatment, hidden platform): prominently improved | time in the target quadrant (NW) in probe trial [4, 13]: significantly more time | time to reach the platform area in probe trial [4, 13]: distinguishably less time | gross appearance or body weight versus vehicle-treated mice [5]: no significant difference | effect on Cu(II) in Cu(II)-loaded Aβ42 fibrils [6]: complete reduction of Cu(II) | reduction of load of APP/Aβ-immunoreactive 4G8-stained amyloid plaques [7]: ca. 23% | reduction of load of Congo red-stained amyloid plaques [7]: ~20% | reduction of FA-soluble Aβ42 [8]: ~32% | reduction of SDS-soluble Aβ42 [8]: ~67% | decrease of total level of Aβ42 (PBS-, SDS- and FA-soluble) ([8]; vs vehicle-treated): ~47% | increase of viability [9]: 10-20% | reduction of FA-soluble Aβ40 [10]: ca. 50% | reduction of SDS-soluble Aβ40 [10]: ca. 68% | decrease of total level of Aβ40 (PBS-, SDS- and FA-soluble) ([10]; vs vehicle-treated): ca. 65% | TΔS1 ([11]; calculated, ΔG=ΔH−TΔS): 6.81 ± 0.201 kcal/mol | TΔS2 ([11]; calculated, ΔG=ΔH−TΔS): 7.48 ± 0.0884 kcal/mol | TΔS3 ([11]; calculated, ΔG=ΔH−TΔS): -2.13 ± 0.155 kcal/mol | ΔG1 ([11]; calculated, ΔG=−RT ln(Ka)): -7.43 ± 0.184 kcal/mol | ΔG2 ([11]; calculated, ΔG=−RT ln(Ka)): -6.33 ± 0.0382 kcal/mol | ΔH1 ([11]; sequential binding model, site 1): -0.629 ± 0.0837 kcal/mol | ΔH2 ([11]; sequential binding model, site 2): 1.14 ± 0.801 kcal/mol | ΔH3 ([11]; sequential binding model, site 3): -8.37 ± 1.52 kcal/mol | Ka1 [11, 14]: 2.85 ± 0.88 × 10^5 M^−1 | Ka2 [11, 14]: 4.34 ± 2.88 × 10^4 M^−1 | Ka3 [11, 14]: 3.73 ± 2.22 × 10^4 M^−1 | effect on formation of metal-free or metal-induced Aβ aggregates ([12]; DMPD 50 μM, Aβ 25 μM, with or without CuCl2/ZnCl2 25 μM, 37° C., 24 hours, aerobic): inhibited the formation of Aβ aggregates | modulation of Aβ aggregation under anaerobic condition ([12]; anaerobic condition): not observed

O=C1C=CC(=O)C=C1 [BQ, benzoquinone]
binding to Aβ40 (MS) ([3]; identical conditions as DMPD): binds to Aβ40 | mass added to Aβ40 on ligand treatment (mass shift) ([3]; ligand 50 μM, Aβ40 25 μM, 24 hours): 104.1±0.1 Da
